This is an account of results in patent US20210327553A1, “PREDICTION OF ADVERSE DRUG REACTION BASED ON MACHINE-LEARNED MODELS USING PROTEIN FUNCTION SCORES AND CLINICAL FACTORS” (Cipherome, Inc., priority 2020, published 2021).

Molecules are shown by their SMILES.

The conditions of data set [1]: prolonged use in patients with liver or kidney problems or immunosuppressed; cited from earlier work.
Data set [2] has as its system COVID-19. As to conditions: limited in-vitro and anecdotal data; cited from earlier work.
Data set [3] can be described thus: Retrospective UK Biobank analysis of warfarin ADR records within first 90 days of administration. Type of data set: in vivo. As to conditions: n=612, ADR record (ICD9/10) within first 90 days of warfarin administration. The protocol:
A retrospective analysis was conducted using genomic and phenotypic data from the UK Biobank (FIG. 2). […] Most common warfarin ADRs listed in the health registry data included non-traumatic, hemorrhage, gastrointestinal bleeding, and “ADRs due to anticoagulant use”.

`CCN(CC)CCCC(C)Nc1ccnc2cc(Cl)ccc12` (centres unmarked) [chloroquine]: the cardiotoxicity result in data set [1] is reported as “cadiotoxicity (prolonged QT syndrome of irregular heartbeats)”. For the same compound, in data set [2], the “in-vitro activity against COVID-19” value was “have in-vitro activity against COVID-19”.

With `CCN(CCO)CCCC(C)Nc1ccnc2cc(Cl)ccc12` (centres unmarked) [hydroxychloroquine], the cardiotoxicity entry in data set [1] was “cadiotoxicity (prolonged QT syndrome of irregular heartbeats)”. Further, in data set [2], the “in-vitro activity against COVID-19” value is “have in-vitro activity against COVID-19”.

`CC(=O)CC(c1ccccc1)c1c(O)c2ccccc2oc1=O` (centres unmarked) [warfarin] yielded an ADR prevalence in data set [3] of 4.41%.
